| melting point [°C] | SMILES |
| --- | --- |
| 286 | Nc1ncc(C#Cc2cnc3c(F)cc(-c4ccc(C(F)(F)F)cc4)cn23)cn1 [Example 240, 5-[8-Fluoro-6-(4-trifluoromethyl-phenyl)-imidazo[1,2-a]pyridin-3-ylethynyl]-pyrimidin-2-ylamine] |
| 230 to 231 | NS(=O)(=O)c1cccc(C#Cc2cnn3c(C(F)(F)F)cc(-c4ccc(Cl)c(Cl)c4)nc23)c1 [Example 93, 3-[5-(3,4-Dichloro-phenyl)-7-trifluoromethyl-pyrazolo[1,5-a]pyrimidin-3-ylethynyl]-benzenesulfonamide] |
| 197 | CN(C)CCNS(=O)(=O)c1ccc(C#Cc2cnn3c(C(F)(F)F)cc(-c4cccc(C(F)(F)F)c4)nc23)s1 [Example 251, 5-[7-Trifluoromethyl-5-(3-trifluoromethyl-phenyl)-pyrazolo[1,5-a]pyrimidin-3-ylethynyl]-thiophene-2-sulfonic acid (2-dimethylamino-ethyl)-amide] |
| 228 to 230 | NS(=O)(=O)c1ccc(C#Cc2cnn3c(C4CC4)cc(-c4ccc(C(F)(F)F)cc4)nc23)cc1 [Example 76, 4-[7-Cyclopropyl-5-(4-trifluoromethyl-phenyl)-pyrazolo[1,5-a]pyrimidin-3-ylethynyl]-benzenesulfonamide] |
| 211 to 212 | CN(C)S(=O)(=O)c1ccc(C#Cc2cnn3c(C(F)F)cc(-c4ccc(C(F)(F)F)cc4)nc23)cc1 [Example 136, 4-[7-Difluoromethyl-5-(4-trifluoromethyl-phenyl)-pyrazolo[1,5-a]pyrimidin-3-ylethynyl]-N,N-dimethyl-benzenesulfonamide] |
| 192 to 195 | FC(F)(F)c1ccc(-c2cc(C(F)(F)F)n3ncc(C#Cc4ccnc(Cl)n4)c3n2)cc1 [Example 183, 3-(2-Chloro-pyrimidin-4-ylethynyl)-7-trifluoromethyl-5-(4-trifluoromethyl-phenyl)-pyrazolo[1,5-a]pyrimidine] |
| 230 | Nc1ncc(C#Cc2cnn3c(C(F)(F)F)cc(-c4ccc(C(F)(F)F)cc4)nc23)cc1C(F)(F)F [Example 222, 3-Trifluoromethyl-5-[7-trifluoromethyl-5-(4-trifluoromethyl-phenyl)-pyrazolo[1,5-a]pyrimidin-3-ylethynyl]-pyridin-2-ylamine] |
| 132 | CC(C)(CO)NS(=O)(=O)c1cccc(C#Cc2cnn3c(C(F)(F)F)cc(-c4cccc(C(F)(F)F)c4)nc23)c1 [Example 107, N-(2-Hydroxy-1,1-dimethyl-ethyl)-3-[7-trifluoromethyl-5-(3-trifluoromethyl-phenyl)-pyrazolo[1,5-a]pyrimidin-3-ylethynyl]-benzenesulfonamide] |
| 204 | Cc1cc(-c2cc(C(F)(F)F)n3ncc(C#Cc4cccc(S(=O)(=O)NC(C)(C)CO)c4)c3n2)ccc1Cl [Example 102, 3-[5-(4-Chloro-3-methyl-phenyl)-7-trifluoromethyl-pyrazolo[1,5-a]pyrimidin-3-ylethynyl]-N-(2-hydroxy-1,1-dimethyl-ethyl)-benzenesulfonamide] |
| 227 to 228 | O=S(=O)(c1ccc(C#Cc2cnn3c(C(F)F)cc(-c4ccc(C(F)(F)F)cc4)nc23)cc1)N1CCOCC1 [Example 137, 7-Difluoromethyl-3-[4-(morpholine-4-sulfonyl)-phenylethynyl]-5-(4-trifluoromethyl-phenyl)-pyrazolo[1,5-a]pyrimidine] |
| 231 to 233 | CNS(=O)(=O)c1ccc(C#Cc2cnn3c(C(F)(F)F)cc(-c4ccc(C(F)(F)F)cc4)nc23)cc1 [Example 123, N-Methyl-4-[7-trifluoromethyl-5-(4-trifluoromethyl-phenyl)-pyrazolo[1,5-a]pyrimidin-3-ylethynyl]-benzenesulfonamide] |
| 192 to 200 | CC(C)(C)NS(=O)(=O)c1cccc(C#Cc2cnn3c(C(F)(F)F)cc(-c4ccc(C(F)(F)F)cc4)nc23)c1 [Example 24, N-tert-Butyl-3-[7-trifluoromethyl-5-(4-trifluoromethyl-phenyl)-pyrazolo[1,5-a]pyrimidin-3-ylethynyl]-benzenesulfonamide] |
| 239 to 240 | Cc1cc(-c2ccc(C(F)(F)F)cc2)cn2c(C#Cc3ccc(N)nc3)cnc12 [Example 209, 5-[8-Methyl-6-(4-trifluoromethyl-phenyl)-imidazo[1,2-a]pyridin-3-ylethynyl]-pyridin-2-ylamine] |
| 255 to 257 | NS(=O)(=O)c1cc(C#Cc2cnn3c(C4CC4)cc(-c4ccc(C(F)(F)F)cc4)nc23)c(F)cc1F [Example 77, 5-[7-Cyclopropyl-5-(4-trifluoromethyl-phenyl)-pyrazolo[1,5-a]pyrimidin-3-ylethynyl]-2,4-difluoro-benzenesulfonamide] |
| 279 to 280 | Nc1ncc(C#Cc2cnc3c(F)cc(-c4ccc(Cl)cc4)cn23)cn1 [Example 242, 5-[6-(4-Chloro-phenyl)-8-fluoro-imidazo[1,2-a]pyridin-3-ylethynyl]-pyrimidin-2-ylamine] |

The remaining lines, values behind:

| SMILES | melting point [°C] |
| --- | --- |
| NCCNS(=O)(=O)c1ccc(C#Cc2cnn3c(C(F)(F)F)cc(-c4ccc(C(F)(F)F)cc4)nc23)s1 [Example 263, 5-[7-Trifluoromethyl-5-(4-trifluoromethyl-phenyl)-pyrazolo[1,5-a]pyrimidin-3-ylethynyl]-thiophene-2-sulfonic acid (2-amino-ethyl)-amide] | 161 |
| Cc1cc(-c2cc(C(F)(F)F)n3ncc(C#Cc4ccc(S(=O)(=O)N5CCN(C)CC5)s4)c3n2)ccc1Cl [Example 258, 5-(4-Chloro-3-methyl-phenyl)-3-[5-(4-methyl-piperazine-1-sulfonyl)-thiophen-2-ylethynyl]-7-trifluoromethyl-pyrazolo[1,5-a]pyrimidine] | 229 |
| Cc1cc(C#Cc2cnn3c(C(F)(F)F)cc(-c4ccc(C(F)(F)F)cc4)nc23)ccn1 [Example 2, 3-(2-Methyl-pyridin-4-ylethynyl)-7-trifluoromethyl-5-(4-trifluoromethyl-phenyl)-pyrazolo[1,5-a]pyrimidine] | 206 |
| FC(F)(F)c1ccc(-c2cc(C(F)(F)F)n3cnc(C#Cc4cccnc4)c3n2)cc1 [Example 268, 8-Pyridin-3-ylethynyl-4-trifluoromethyl-2-(4-trifluoromethyl-phenyl)-imidazo[1,5-a]pyrimidine] | 199 |
| N#Cc1cc(C#Cc2cnn3c(C(F)F)cc(-c4ccc(C(F)(F)F)cc4)nc23)cnc1N [Example 218, 2-Amino-5-[7-difluoromethyl-5-(4-trifluoromethyl-phenyl)-pyrazolo[1,5-a]pyrimidin-3-ylethynyl]-nicotinonitrile] | 255 |
| Cc1cc(-c2ccc(C(F)(F)F)cc2)cn2c(C#Cc3cncc(S(=O)(=O)NC(C)(C)CO)c3)cnc12 [Example 228, 5-[8-Methyl-6-(4-trifluoromethyl-phenyl)-imidazo[1,2-a]pyridin-3-ylethynyl]-pyridine-3-sulfonic acid (2-hydroxy-1,1-dimethyl-ethyl)-amide] | 189 |
| CC(O)c1ccc(C#Cc2cnn3c(C(F)(F)F)cc(-c4ccc(C(F)(F)F)cc4)nc23)cc1 (stereo not shown) [Example 52, 1-{4-[7-Trifluoromethyl-5-(4-trifluoromethyl-phenyl)-pyrazolo[1,5-a]pyrimidin-3-ylethynyl]-phenyl}-ethanol] | 175 to 178 |
| COc1ccc(C#Cc2cnn3c(C(F)(F)F)cc(-c4ccc(C(F)(F)F)cc4)nc23)cn1 [Example 56, 3-(6-Methoxy-pyridin-3-ylethynyl)-7-trifluoromethyl-5-(4-trifluoromethyl-phenyl)-pyrazolo[1,5-a]pyrimidine] | 166 to 168 |
| N#CCCNS(=O)(=O)c1cccc(C#Cc2cnn3c(C(F)(F)F)cc(-c4ccc(C(F)(F)F)cc4)nc23)c1 [Example 47, N-(2-Cyano-ethyl)-3-[7-trifluoromethyl-5-(4-trifluoromethyl-phenyl)-pyrazolo[1,5-a]pyrimidin-3-ylethynyl]-benzenesulfonamide] | 174 to 182 |
| CN1CCN(S(=O)(=O)c2ccc(C#Cc3cnn4c(C(F)F)cc(-c5ccc(C(F)(F)F)cc5)nc34)s2)CC1 [Example 252, 7-Difluoromethyl-3-[5-(4-methyl-piperazine-1-sulfonyl)-thiophen-2-ylethynyl]-5-(4-trifluoromethyl-phenyl)-pyrazolo[1,5-a]pyrimidine] | 226 |
| COc1ccc(C#Cc2cnn3c(C4CC4)cc(-c4ccc(Cl)cc4)nc23)cc1S(=O)(=O)NC(C)(C)CO [Example 69, 5-[5-(4-Chloro-phenyl)-7-cyclopropyl-pyrazolo[1,5-a]pyrimidin-3-ylethynyl]-N-(2-hydroxy-1,1-dimethyl-ethyl)-2-methoxy-benzenesulfonamide] | 253 to 256 |
| O=S(=O)(O)c1cncc(C#Cc2cnn3c(C(F)(F)F)cc(-c4ccc(C(F)(F)F)cc4)nc23)c1 [Example 37, 5-[7-Trifluoromethyl-5-(4-trifluoromethyl-phenyl)-pyrazolo[1,5-a]pyrimidin-3-ylethynyl]-pyridine-3-sulfonic acid] | > 288 |
| CC(C)(O)c1ccc(C#Cc2cnn3c(CO)cc(-c4ccc(Cl)cc4)nc23)cc1 [Example 299, 2-{4-[5-(4-Chloro-phenyl)-7-hydroxymethyl-pyrazolo[1,5-a]pyrimidin-3-ylethynyl]-phenyl}-propan-2-ol] | 118 to 120 |
| CC(C)(O)c1ccc(C#Cc2cnn3c(C4CC4)cc(-c4ccc(Cl)cc4)nc23)cc1 [Example 300, 2-{4-[5-(4-Chloro-phenyl)-7-cyclopropyl-pyrazolo[1,5-a]pyrimidin-3-ylethynyl]-phenyl}-propan-2-ol] | 148 to 150 |
| Oc1cncc(C#Cc2cnn3c(C(F)(F)F)cc(-c4ccc(C(F)(F)F)cc4)nc23)c1 [Example 58, 5-[7-Trifluoromethyl-5-(4-trifluoromethyl-phenyl)-pyrazolo[1,5-a]pyrimidin-3-ylethynyl]-pyridin-3-ol] | 258 to 260 |
| Nc1ncc(C#Cc2cnc3ccc(-c4ccc(C(F)(F)F)cc4)cn23)cn1 [Example 238, 5-[6-(4-Trifluoromethyl-phenyl)-imidazo[1,2-a]pyridin-3-ylethynyl]-pyrimidin-2-ylamine] | 244 to 246 |

From patent US8063048B2, “Acetylenyl-pyrazolo-pyrimidine derivatives” (Hoffmann-La Roche Inc., priority 2005, dated 2011)
